# “And” between values parts separate entries of the source, which are not always exact repeats. Equal values may be shown once.
# Experiments:
# [1] = molecular target: T1, Bdf1‐SmBiT/H2A.Z‐LgBiT pair (Saccharomyces cerevisiae, UniProt P35817); test: NanoBiT assay; type: cell-based, S. cerevisiae; parameters: remaining activity: dose or concentration left out as unconfirmed
# T1 construct: expressed in transfected cells; host or cells: S. cerevisiae (H2A.Z-LgBiT strain)
# Experimental: (§1) Yeast strains were distributed in 96‐well microplates containing SC(MSG)‐U medium (SC‐U medium with 0.1% monosodium glutamate instead of ammonium sulfate as a nitrogen source) and grown at 30 °C. 40 µL of exponentially growing cells were transferred in white 96‐well half‐area microplates (ProxiPlate Plus, Greiner Bio‐One) previously filled with 40 µL per well of SC(MSG) containing 100 µM furimazine. The microplates were then incubated for 10 min in the dark before the luminescence signals were recorded using a microplate reader (Ensight, PerkinElmer). Luminescence measurements were performed for 1 s per well at a distance of 0.1 mm between the plate and the detector. The luminescence values were normalized with the optical density (OD600) of the corresponding cultures. For NanoBiT assays with BET inhibitors, yeast cultures were grown overnight at 30 °C in SC(MSG) medium in the presence of serial dilutions of 24c and I‐BET726. Overnight cultures were diluted 5 fold in SC(MSG) and incubated for 1 h before luminescence was recorded as previously indicated. Luminescence values for each condition were normalized using the average of the luminescence recorded for the Bdf1/Swc4 and Bmh1/Bmh2 controls.
# human Brd4 BD2 = molecular target: T2, human Brd4 BD2 (Homo sapiens, UniProt O60885); test: HTRF assay, inhibition of H4ac4 peptide binding; details: for %HTRF Signal hBrd4 BD2: Fig 2E
# T2 construct: GST‐tagged BD2 (residues 349–460) from human Brd4 (UniProt ID O60885); purchased Reaction Biology Corp
# Bmh1/Bmh2 = test: NanoBiT assay, control pair; type: cell-based, S. cerevisiae; parameters: Normalized nanoBiT signal: unit of the concentration uncertain; details: for Normalized nanoBiT signal: Bmh1-LgBiT, Bmh2-SmBiT, Fig 4C
# Experimental: as §1
# human Brd4 BD1 = human Brd4 BD1 (Homo sapiens, UniProt O60885); test: HTRF assay, inhibition of H4ac4 peptide binding; details: for %HTRF Signal hBrd4 BD1: Fig 2E
# C. auris Bdf1 BD2 = C. auris Bdf1 BD2 (Candidozyma auris (Candida auris), UniProt A0AAW0VEM6); test: HTRF assay, inhibition of H4ac4 peptide binding
# Bdf1/Swc4 = molecular target: T3, Bdf1/Swc4 (Saccharomyces cerevisiae, UniProt P35817); test: NanoBiT assay, control pair; type: cell-based, S. cerevisiae; details: Bdf1-SmBiT, Swc4-LgBiT, Fig 4C, read-out: Normalized nanoBiT signal
# T3 construct: expressed in transfected cells; host or cells: S. cerevisiae
# Experimental: as §1
# Chain of C. auris Bdf1 BD2 (A0AAW0VEM6 entry or part of it): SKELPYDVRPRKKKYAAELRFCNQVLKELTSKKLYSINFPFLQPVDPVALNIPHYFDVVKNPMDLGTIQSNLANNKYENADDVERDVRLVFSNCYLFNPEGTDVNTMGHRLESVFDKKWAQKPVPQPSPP
# T3 sequence (P35817 whole entry): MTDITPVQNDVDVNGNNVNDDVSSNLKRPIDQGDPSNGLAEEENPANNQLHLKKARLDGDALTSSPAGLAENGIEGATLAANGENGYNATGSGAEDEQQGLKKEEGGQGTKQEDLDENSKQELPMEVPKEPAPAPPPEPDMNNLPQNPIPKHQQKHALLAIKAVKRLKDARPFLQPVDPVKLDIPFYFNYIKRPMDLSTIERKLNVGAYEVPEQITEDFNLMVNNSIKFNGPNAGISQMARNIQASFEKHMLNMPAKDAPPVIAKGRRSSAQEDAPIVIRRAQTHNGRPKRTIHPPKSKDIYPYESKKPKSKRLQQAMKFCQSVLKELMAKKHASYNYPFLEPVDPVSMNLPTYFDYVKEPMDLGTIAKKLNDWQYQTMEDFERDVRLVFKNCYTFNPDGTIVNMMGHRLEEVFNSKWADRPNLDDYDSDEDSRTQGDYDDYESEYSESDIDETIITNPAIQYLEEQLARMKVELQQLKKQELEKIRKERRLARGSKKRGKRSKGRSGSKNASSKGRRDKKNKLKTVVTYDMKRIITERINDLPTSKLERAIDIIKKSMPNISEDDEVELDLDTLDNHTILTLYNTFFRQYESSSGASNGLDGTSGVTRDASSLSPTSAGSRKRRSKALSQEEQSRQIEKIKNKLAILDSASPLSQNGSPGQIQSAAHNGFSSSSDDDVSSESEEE
# T3 sequence (P53201 whole entry, further chain): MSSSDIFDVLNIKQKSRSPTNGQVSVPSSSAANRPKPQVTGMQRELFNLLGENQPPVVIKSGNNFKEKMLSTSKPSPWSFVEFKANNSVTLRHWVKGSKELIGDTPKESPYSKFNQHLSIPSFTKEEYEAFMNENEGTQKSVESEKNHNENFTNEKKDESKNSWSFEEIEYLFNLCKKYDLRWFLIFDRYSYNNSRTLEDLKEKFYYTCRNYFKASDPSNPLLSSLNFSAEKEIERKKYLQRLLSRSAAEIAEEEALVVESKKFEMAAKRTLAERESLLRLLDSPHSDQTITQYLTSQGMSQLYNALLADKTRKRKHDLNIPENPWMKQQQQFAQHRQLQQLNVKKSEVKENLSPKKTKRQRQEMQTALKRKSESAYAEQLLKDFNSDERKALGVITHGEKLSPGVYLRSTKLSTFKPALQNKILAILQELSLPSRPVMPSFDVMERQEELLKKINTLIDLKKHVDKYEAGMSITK
# T1 sequence (P35817 whole entry): as the sequence (P35817 whole entry) above
compound,measurement,setting,value
"Cc1ccc(-c2nnc(C)c(NCc3ccc(C)o3)n2)cc1 [Compound 24c, 6‐methyl‐N‐((5‐methylfuran‐2‐yl)methyl)‐3‐(p‐tolyl)‐1,2,4‐triazin‐5‐amine]",remaining activity at 195.3 µM,"[1]; Bdf1-SmBiT, Htz1-LgBiT, 0.1953 mM, Fig 4C, read-out: Normalized nanoBiT signal",99%
same,remaining activity at 390.6 µM,"[1]; Bdf1-SmBiT, Htz1-LgBiT, 0.3906 mM, Fig 4C, read-out: Normalized nanoBiT signal",98%
same,remaining activity at 781.3 µM,"[1]; Bdf1-SmBiT, Htz1-LgBiT, 0.7813 mM, Fig 4C, read-out: Normalized nanoBiT signal",99%
same,remaining activity at 3125 µM,"[1]; Bdf1-SmBiT, Htz1-LgBiT, 3.1250 mM, Fig 4C, read-out: Normalized nanoBiT signal",98%
same,remaining activity,"[1]; Bdf1-SmBiT, Htz1-LgBiT, […], Fig 4C, read-out: Normalized nanoBiT signal",85%
same,IC50,"[1]; mean and s.d., 4 independent experiments, read-out: IC50 (μM) (ScBdf1 / H2A.Z) NanoBiT signal",65 µM
same,IC50,human Brd4 BD2,> 20 µM
same,%HTRF Signal hBrd4 BD2,human Brd4 BD2; 0.002 microM,101.87% and 97.60% and 95.93%
same,%HTRF Signal hBrd4 BD2,human Brd4 BD2; 0.005 microM,107.00% and 95.29% and 98.83%
same,%HTRF Signal hBrd4 BD2,human Brd4 BD2; 0.013 microM,110.74% and 98.44% and 97.06%
same,%HTRF Signal hBrd4 BD2,human Brd4 BD2; 0.033 microM,106.00% and 100.34% and 100.19%
same,%HTRF Signal hBrd4 BD2,human Brd4 BD2; 0.082 microM,114.59% and 102.11% and 105.40%
same,%HTRF Signal hBrd4 BD2,human Brd4 BD2; 0.205 microM,102.46% and 102.49% and 103.89%
same,%HTRF Signal hBrd4 BD2,human Brd4 BD2; 0.512 microM,110.69% and 102.99% and 100.42%
same,%HTRF Signal hBrd4 BD2,human Brd4 BD2; 1.280 microM,110.63% and 103.66% and 98.46%
same,%HTRF Signal hBrd4 BD2,human Brd4 BD2; 3.200 microM,107.03% and 99.12% and 95.88%
same,%HTRF Signal hBrd4 BD2,human Brd4 BD2; 8.000 microM,99.23% and 96.86% and 85.81%
same,%HTRF Signal hBrd4 BD2,human Brd4 BD2; 20.000 microM,80.43% and 88.19% and 83.66%
same,Normalized nanoBiT signal,Bmh1/Bmh2; 0.1953 (unit uncertain),107% and 92% and 96% and 99%
same,Normalized nanoBiT signal,Bmh1/Bmh2; 0.3906 (unit uncertain),88% and 99% and 103%
same,Normalized nanoBiT signal,Bmh1/Bmh2; 0.7813 (unit uncertain),86% and 104% and 98% and 103%
same,Normalized nanoBiT signal,Bmh1/Bmh2; 1.5625 (unit uncertain),100% and 97% and 101%
same,Normalized nanoBiT signal,Bmh1/Bmh2; 3.1250 (unit uncertain),93% and 97% (2×) and 103%
same,Normalized nanoBiT signal,Bmh1/Bmh2; 50.0000 (unit uncertain),79% and 98% and 101% and 93%
same,Normalized nanoBiT signal,Bmh1/Bmh2; 100.0000 (unit uncertain),95% and 97% and 100% and 88%
same,"inhibition of NanoBiT signal, Bmh1/Bmh2",Bmh1/Bmh2; unrelated control pair,not observed
same,IC50,human Brd4 BD1,> 20 µM
same,%HTRF Signal hBrd4 BD1,human Brd4 BD1; 0.002 microM,99.94% and 101.82% and 96.40%
same,%HTRF Signal hBrd4 BD1,human Brd4 BD1; 0.005 microM,98.75% and 96.86% and 103.69%
same,%HTRF Signal hBrd4 BD1,human Brd4 BD1; 0.013 microM,99.02% and 101.98% and 101.10%
same,%HTRF Signal hBrd4 BD1,human Brd4 BD1; 0.033 microM,102.19% and 101.25% and 104.58%
same,%HTRF Signal hBrd4 BD1,human Brd4 BD1; 0.082 microM,100.31% and 103.86% and 103.22%
same,%HTRF Signal hBrd4 BD1,human Brd4 BD1; 0.205 microM,99.94% and 102.50% and 103.66%
same,%HTRF Signal hBrd4 BD1,human Brd4 BD1; 0.512 microM,100.22% and 100.80% and 103.20%
same,%HTRF Signal hBrd4 BD1,human Brd4 BD1; 1.280 microM,99.57% and 100.99% and 103.81%
same,%HTRF Signal hBrd4 BD1,human Brd4 BD1; 3.200 microM,98.88% and 63.27% and 99.81%
same,%HTRF Signal hBrd4 BD1,human Brd4 BD1; 8.000 microM,95.80% and 101.11% and 96.69%
same,%HTRF Signal hBrd4 BD1,human Brd4 BD1; 20.000 microM,84.01% and 92.12% and 87.26%
same,remaining activity at 0.0021 µM,"C. auris Bdf1 BD2; CauBD2, 24c 0.0021 microM, Exp1-3, read-out: Percent HTRF Signal",100%
same,remaining activity at 0.0052 µM,"C. auris Bdf1 BD2; CauBD2, 24c 0.0052 microM, Exp1-3, read-out: Percent HTRF Signal",94.4%
same,remaining activity at 0.013 µM,"C. auris Bdf1 BD2; CauBD2, 24c 0.013 microM, Exp1-3, read-out: Percent HTRF Signal",99.2%
same,remaining activity at 0.033 µM,"C. auris Bdf1 BD2; CauBD2, 24c 0.033 microM, Exp1-3, read-out: Percent HTRF Signal",100%
same,remaining activity at 0.082 µM,"C. auris Bdf1 BD2; CauBD2, 24c 0.082 microM, Exp1-3, read-out: Percent HTRF Signal",106%
same,remaining activity at 0.2 µM,"C. auris Bdf1 BD2; CauBD2, 24c 0.20 microM, Exp1-3, read-out: Percent HTRF Signal",105%
same,remaining activity at […],"C. auris Bdf1 BD2; CauBD2, 24c 0.51 microM, Exp1-3, read-out: Percent HTRF Signal",99.5%
same,remaining activity at 1.28 µM,"C. auris Bdf1 BD2; CauBD2, 24c 1.28 microM, Exp1-3, read-out: Percent HTRF Signal",100%
same,remaining activity at 3.2 µM,"C. auris Bdf1 BD2; CauBD2, 24c 3.20 microM, Exp1-3, read-out: Percent HTRF Signal",98.7%
same,remaining activity at 8 µM,"C. auris Bdf1 BD2; CauBD2, 24c 8.00 microM, Exp1-3, read-out: Percent HTRF Signal",84%
same,remaining activity at 20 µM,"C. auris Bdf1 BD2; CauBD2, 24c 20.00 microM, Exp1-3, read-out: Percent HTRF Signal",79.1%
same,inhibition of Bdf1 BD2 from C. auris,"C. auris Bdf1 BD2; HTRF, Fig S9C",weakly inhibited
same,remaining activity at 195.3 µM,Bdf1/Swc4; 0.1953 mM,93%
same,remaining activity at 390.6 µM,Bdf1/Swc4; 0.3906 mM,104%
same,remaining activity at 781.3 µM,Bdf1/Swc4; 0.7813 mM,108%

# From paper PMC11904993, “Humanized Candida and NanoBiT Assays Expedite Discovery of Bdf1 Bromodomain Inhibitors With Antifungal Potential” (Advanced Science, 2025)
